Format in all cases: cell-based, mouse
The test system of experiment [1] is PPRE-driven luciferase activity. The experiment is described as follows: PPRE-luciferase assay in Pparb-null astrocytes with PPARγ antagonist GW9662. The conditions noted are these: Pparb-null astrocytes. The procedure: FIG. 16A) Pparb-null primary astrocytes plated at 60-70% confluence in 12-well plates were transfected with 0.25 μg of tkPPREx3-Luc (a PPRE-dependent luciferase reporter construct). Twenty-four hours after transfection, cells were treated with different concentrations of GW9662 for 30 min followed by stimulation with rosiglitazone. After 4 h, luciferase activities were assayed. […] After transfection, cells were also treated with GW9662 followed by stimulation with OCT (FIG. 16B), HEX (FIG. 16C) and HMB (FIG. 16D).
These astrocytes were pre-treated with PPARγ-antagonist GW9662 to nullify the involvement of PPARγ in reporter assay.

For experiment [2] the test system is unchanged. Put plainly: PPRE-luciferase assay in Ppara-null astrocytes transduced with Ppara constructs. The note with it: Ppara-null astrocytes (empty vector). Here is the method: Astrocytes plated at 60-70% confluence were transfected with tk-PPREx3-Luc, a PPRE-dependent luciferase reporter construct. After 24 h of transfection, cells were treated with different concentrations of HEX (FIG. 10A), OCT (FIG. 10B) and HMB (FIG. 10C) for 4 h followed by monitoring luciferase activity. Under similar experimental condition, MTT was performed to understand the effect of these ligands on cell viability (FIG. 10D, HEX; FIG. 10E, OCT; FIG. 10F, HMB). Results are mean±SD of three independent experiments. ^ap<0.001 vs. control. Ppara-null astrocytes were transduced with lentivirions containing empty vector (FIG. 10G), FL-Ppara (FIG. 10H), Y314D-Ppara (FIG. 10I), Y464D-Ppara (FIG. 10J), and Y314D/Y464D-Ppara (FIG. 10K) for 48 h followed by transfection with tk-PPREx3-Luc. After 24 h of transfection, cells were treated with different doses of HEX, OCT and HMB for 4 h followed by monitoring luciferase activity. PPRE luciferase activity was assayed in Ppara-null astrocytes transduced with lentivirions containing empty vector (FIG. 10L), FL-Ppara (FIG. 10M), Y314D-Ppara (FIG. 10N), Y464D-Ppara (FIG. 10O), and Y314D/Y464D-Ppara (FIG. 10P) after treatment with different doses of WY14643, fenofibrate, and clofibrate. PPRE luciferase activity was assayed in primary hippocampal neurons transduced with lentivirions containing empty vector (FIG. 10Q), FL-Ppara (FIG. 10R), Y314D-Ppara (FIG. 10S), Y464D-Ppara (FIG. 10T), and Y314D/Y464D-Ppara (FIG. 10U) after treatment with different doses of HEX, OCT and HMB. Results are mean±SD of three independent experiments. ^ap<0.001 vs. control.

The subject of experiment [3] is Ppara-null hippocampal neurons. The experiment is described as follows: Dendritic spine density (phalloidin) in transduced Ppara-null hippocampal neurons. The note with it: lenti-FL-Ppara. The procedure: Ppara-null hippocampal neurons were transduced with lentivirions containing GFP (vector), FL-Ppara, and Y464D-Ppara for 48 h followed by treatment with vehicle (DMSO) (FIG. 11A), OCT (FIG. 11B), HEX (FIG. 11C), HMB (FIG. 11D), and WY14643 (FIG. 11E) for 24 h. Then neurons were stained for phalloidin to measure spine density. FIG. 11F) A representative picture of dendrite with spines (Cyan color) used for counting area of spine heads. Area of spine heads (FIG. 11G) and number of spines (FIG. 11H) in 10 μm of dendrites. Results are mean±SEM of 5 neurons per group. ^ap<0.05 vs vector only; ^bp<0.05 vs FL-Ppara. AMPA-driven calcium influx was measured in OCT (red), HEX (green) and HMB (purple)-treated Ppara-null hippocampal neurons transduced with lentivirions containing FL-Ppara (FIG. 11I), Y314D-Ppara (FIG. 11J), Y464D-Ppara (FIG. 11K), and Y314D/Y464D-Ppara (FIG. 11L). All neurons were treated with 50 μM of NMDA receptor antagonist N20C to inhibit passive calcium flow through NMDA receptor. (FIG. 11M-P) Similarly NMDA-driven calcium influx was measured in the lentivius-infected Ppara-null hippocampal neurons in the presence of different endogenous ligands. In these cases, Naspm-HCl was treated to stop the passive flow of calcium currents through AMPA receptor. Results are mean of three independent experiments.
Dendritic spines are the crucial mediators of synaptic transmission among central neurons and often serve as a primary candidate for the long term morphological substrates of neuronal plasticity^12,13. Therefore, the effect of these ligands on the increase of spine density in cultured hippocampal neurons was studied. Briefly, mouse Ppara-null hippocampal neurons were transduced with lentivirus containing empty vector, FL-Ppara, or Y464D-Ppara for a week followed by the treatment with OCT, HEX, and HMB for four more days. After that, neurons were labelled with phalloidin to monitor the spine density. […] This observation was further validated by measuring the area of spine heads (FIG. 11F-G) and number of spines (FIG. 11H) in HEX, OCT, and HMB-treated Ppara-null neurons. HEX (FIG. 17G-H), OCT (FIG. 17I-J) and HMB (FIG. 17K-L) stimulated the expression of CREB in Ppara-null hippocampal neurons that were transduced with lentivirons containing the FL-Ppara gene.
Hippocampal regions were dissected from 18-day-old embryonic fetus as described elsewhere (PMID: 25007337), combined and plated in poly-D-lysine coated plate for another 2-3 weeks for branching. After that, these neurons were transduced with GFP-containing lentivirions for 2 d. Neurons were stained with Dylight-554-conjugated phalloidin (Cat #21834; Thermofisher) as per manufactures protocol and visualized in fluorescence microscope. […]

With `O=C(Nc1ccccc1)c1cc([N+](=O)[O-])ccc1Cl` [GW9662, reference compound], the “effect on rosiglitazone-mediated increase in PPRE-luciferase activity” value in experiment [1] is recorded as “Inhibition”. On to `Cc1cccc(Nc2cc(Cl)nc(SCC(=O)O)n2)c1C` [WY14643, reference compound], for which the PPRE-driven luciferase activity entry in experiment [2] is listed as “unable to induce”. Also, in experiment [3], the density of spines entry is “stimulated”.

The values above are taken from patent US10617664B2, “Brain derived PPARα ligands” (Rush University Medical Center, priority 2015, dated 2020).
